Results from patent publication US20240343732A1, “COMPOUNDS FOR DEGRADATION OF CYCLIN-DEPENDENT KINASE 7(CDK7)” (QURIENT CO., LTD., priority 2021, published 2024).

Tests used:
CDK7/CycH/MNAT1 = target: T1, CDK7/CycH/MNAT1 (Homo sapiens, UniProt P50613); test: Binding assay (FRET, LanthaScreen Eu, Tracer236) for CDK7; settings: read-out: CDK7 IC50 (enzyme binding assay)
T1 construct: His; purchased Invitrogen PR6749B
Method: (§1) Inhibition activity of compound to CDK7 kinase was tested in a binding assay which was applied to the FRET (fluorescence resonance energy transfer) principle from the europium (Eu) donor fluorophore to the acceptor fluorophore on the kinase tracer. Test compounds were made to 1.125 mM of compound solution, and then this compound solution 4-fold serial diluted in 8 steps using an automated liquid handler (JANUS™, PerkinElmer). 80 nL/well of each diluted compound solution was added into the 384-well plate (Greiner, Cat #784075) first and 7.5 ul/well of working solution [5 nM of CDK7/CycH/MNAT1 (Invitrogen, Cat #PR6749B), 4 nM of Biotin anti-His Tag Antibody (Invitrogen, Cat #PV6090), and LanthaScreen® Eu-Streptavidin (Invitrogen, Cat #PV6025)] was added. After mixing the solution well, the same volume with the working solution of Tracer236 (Invitrogen, Cat #PV5592) was added into each well in the plate. The plate was incubated for 60 minutes at room temperature and then all the fluorescence were measured using Envision leader (Perkin Elmer, USA) [Laser as excitation light; […] as the first and the second emission filter]. Data was analysed using XL Fit software.
(§2) All of the synthesized compounds were screened in the above-mentioned assay procedure. To identify the inhibition activity of compounds for other CDKs including CDK1 (Invitrogen, Cat #PR4768C), CDK2 (Invitrogen, Cat #PR4448B) and CDK5 (Invitrogen, Cat #PR8543B) were tested using the same protocol under reasonable concentration of Tracer236 and kinases for each assay. The formula for the assay buffer summarized in below table.

CDK7 protein = target: T2, CDK7 protein (Homo sapiens, UniProt P50613); test: Western blot assay for CDK7 protein degradation in A2780 cells; type: cell-based; settings: 24 hours; for DC50: read-out: Compound concentration that caused 50% CDK7 protein degradation in A2780 cells (DC50);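 on all read-outs here: A is DC50 up to 100 nM B is 100 to 1000 nM C is above 1000 nM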
T2 construct: To verify endogenous CDK7 protein degradation; endogenous in cells; host or cells: A2780 (ECACC 93112519)
Method: Human ovarian cancer cell line, A2780 (Cat #93112519) was obtained from ECACC. Cells were grown in RPMI-1640 media (Invitrogen, Cat #22400105) supplemented with 10% FBS (Hyclone, Cat #SH30084.03) and 1% penicillin/streptomycin (Hyclone, Cat #SV30010) and cultured at 37° C., 5% Co2 in a humidified chamber. All cell lines were routinely tested for mycoplasma.
To verify endogenous CDK7 protein degradation upon treatment of CDK7-specific degrader, the western blot assay was conducted a 24 hours' time period. 6×10^5 cells/well of A2780 cells were plated in 6-well plate. After 24 hours, the cells were treated with various concentrations of the compound corresponding range. DMSO solvent without compound served as a control and final DMSO concentration was not to exceed 0.1% of total volume. After 24 hours of incubation at 37° C., 5% Co2 incubator, cells were collected and lysed with 60 ul of lysis buffer. Collected lysates were incubated for 30 min on ice and collect supernatant through centrifugation at 12,000 rpm for 10 min at 4° C. The protein in lysates were quantified with BCA protein quantification kit (Pierce, Cat #23227) following manufacture's protocol. Cell lysates were diluted into 1 ug/ul of concentration with lysis buffer. 20 ug of protein was loaded to each well of 4˜12% Bis-Tris gel (Invitrogen, Cat #NP0336BOX) with MOPS running buffer (Invitrogen, Cat #NP0001). The proteins were transferred from gel to membrane and incubated with primary antibody as followed at 4° C. overnight; CDK7 (CST, Cat #2090S) and β-actin (Santa Cruz, Cat #sc-47778) 1:20,000. The signals were developed and acquired with ImageQuant™ LAS 4000.

CDK1 = target: T3, CDK1 (Homo sapiens, UniProt P06493); test: Binding assay (FRET, LanthaScreen Eu, Tracer236) for CDK1; settings: for IC50: read-out: CDK1 IC50 (enzyme binding assay)
T3 construct: His; purchased Invitrogen PR4768C
Method: as §1, §2

CDK5 = target: T4, CDK5 (Homo sapiens, UniProt Q00535); test: Binding assay (FRET, LanthaScreen Eu, Tracer236) for CDK5; settings: for IC50: read-out: CDK5 IC50 (enzyme binding assay)
T4 construct: His; purchased Invitrogen PR8543B
Method: as §1, §2

CDK2 = target: T5, CDK2 (Homo sapiens, UniProt P24941); test: Binding assay (FRET, LanthaScreen Eu, Tracer236) for CDK2; settings: for IC50: read-out: CDK2 IC50 (enzyme binding assay)
T5 construct: His; purchased Invitrogen PR4448B
Method: as §1, §2

T2 sequence (P50613 whole entry): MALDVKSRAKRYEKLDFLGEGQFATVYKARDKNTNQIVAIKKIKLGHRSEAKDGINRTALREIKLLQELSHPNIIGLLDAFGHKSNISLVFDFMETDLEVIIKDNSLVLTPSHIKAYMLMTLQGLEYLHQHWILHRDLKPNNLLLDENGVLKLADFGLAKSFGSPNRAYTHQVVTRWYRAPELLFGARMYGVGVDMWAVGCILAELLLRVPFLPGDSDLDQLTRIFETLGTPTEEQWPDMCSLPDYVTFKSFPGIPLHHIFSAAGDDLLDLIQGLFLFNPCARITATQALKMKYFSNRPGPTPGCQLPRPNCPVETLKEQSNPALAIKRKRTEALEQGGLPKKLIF
T1 sequence (P50613 whole entry): as above
T1 sequence (P51946 whole entry partner): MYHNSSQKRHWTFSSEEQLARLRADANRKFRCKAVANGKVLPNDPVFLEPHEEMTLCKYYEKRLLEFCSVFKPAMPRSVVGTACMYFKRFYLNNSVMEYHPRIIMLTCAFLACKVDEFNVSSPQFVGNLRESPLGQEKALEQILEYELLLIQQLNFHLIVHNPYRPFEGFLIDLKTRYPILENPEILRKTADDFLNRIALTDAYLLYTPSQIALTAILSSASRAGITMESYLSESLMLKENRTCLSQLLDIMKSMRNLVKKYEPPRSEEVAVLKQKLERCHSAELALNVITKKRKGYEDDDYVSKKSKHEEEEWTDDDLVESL
T1 sequence (P51948 whole entry partner): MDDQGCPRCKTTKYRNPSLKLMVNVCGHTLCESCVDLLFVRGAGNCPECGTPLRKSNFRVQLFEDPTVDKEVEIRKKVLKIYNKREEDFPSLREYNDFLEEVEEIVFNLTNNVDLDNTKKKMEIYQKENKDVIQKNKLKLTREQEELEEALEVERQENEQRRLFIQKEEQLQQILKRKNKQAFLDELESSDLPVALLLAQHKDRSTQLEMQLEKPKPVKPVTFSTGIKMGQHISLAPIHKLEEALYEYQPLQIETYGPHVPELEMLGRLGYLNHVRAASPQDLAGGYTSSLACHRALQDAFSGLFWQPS
T4 sequence (Q00535 whole entry): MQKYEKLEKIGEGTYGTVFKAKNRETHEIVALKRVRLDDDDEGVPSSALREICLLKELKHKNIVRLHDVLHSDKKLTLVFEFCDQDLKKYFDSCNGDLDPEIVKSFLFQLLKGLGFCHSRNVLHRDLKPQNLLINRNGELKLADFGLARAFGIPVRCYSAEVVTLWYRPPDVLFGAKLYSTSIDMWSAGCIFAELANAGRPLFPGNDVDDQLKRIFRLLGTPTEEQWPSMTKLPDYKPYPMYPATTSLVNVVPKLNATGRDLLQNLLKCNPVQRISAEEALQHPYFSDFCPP
T4 sequence (Q15078 99-307 partner limits assumed): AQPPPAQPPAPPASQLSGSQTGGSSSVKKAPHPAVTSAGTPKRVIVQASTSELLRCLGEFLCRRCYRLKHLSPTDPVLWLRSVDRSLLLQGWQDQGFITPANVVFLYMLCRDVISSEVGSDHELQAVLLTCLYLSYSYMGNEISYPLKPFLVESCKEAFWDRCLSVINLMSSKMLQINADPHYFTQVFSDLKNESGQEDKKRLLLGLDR
T3 sequence (P06493 whole entry): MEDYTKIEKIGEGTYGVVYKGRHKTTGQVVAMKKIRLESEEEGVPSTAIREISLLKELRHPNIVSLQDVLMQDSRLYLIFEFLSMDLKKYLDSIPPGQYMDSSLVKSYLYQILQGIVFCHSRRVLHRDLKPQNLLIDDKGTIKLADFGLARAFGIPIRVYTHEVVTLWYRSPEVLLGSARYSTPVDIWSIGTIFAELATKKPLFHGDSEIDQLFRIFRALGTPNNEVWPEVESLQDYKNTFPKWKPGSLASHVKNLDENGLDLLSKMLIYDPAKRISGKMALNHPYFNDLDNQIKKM
T3 sequence (P14635 whole entry partner): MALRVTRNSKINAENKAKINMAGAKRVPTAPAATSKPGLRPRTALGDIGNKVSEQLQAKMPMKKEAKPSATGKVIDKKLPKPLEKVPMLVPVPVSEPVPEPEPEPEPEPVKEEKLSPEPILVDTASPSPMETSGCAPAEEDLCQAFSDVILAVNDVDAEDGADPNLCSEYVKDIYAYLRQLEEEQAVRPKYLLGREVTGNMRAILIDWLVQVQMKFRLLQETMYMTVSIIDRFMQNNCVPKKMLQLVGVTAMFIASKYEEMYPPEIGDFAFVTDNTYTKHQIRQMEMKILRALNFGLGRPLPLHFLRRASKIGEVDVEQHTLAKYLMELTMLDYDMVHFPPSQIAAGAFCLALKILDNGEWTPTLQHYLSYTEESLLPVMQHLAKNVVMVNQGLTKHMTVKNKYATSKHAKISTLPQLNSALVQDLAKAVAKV

SMILES | IC50 (CDK7/CycH/MNAT1) [µM] | Compound concentration that caused 50% CDK7 protein degradation in A2780 cells (DC50, nM) (CDK7 protein) | DC50 (CDK7 protein) [µM] | CDK1/CDK7: Selectivity of CDK7 inhibition over CDK1 inhibition (CDK1) | IC50 (CDK1) [µM] | CDK5/CDK7: Selectivity of CDK7 inhibition over CDK5 inhibition (CDK5) | IC50 (CDK5) [µM] | CDK2/CDK7: Selectivity of CDK7 inhibition over CDK2 inhibition (CDK2) | IC50 (CDK2) [µM]
Cc1ncsc1-c1ccc(CNC(=O)[C@@H]2C[C@@H](O)CN2C(=O)[C@@H](NC(=O)C2(F)CC2)C(C)(C)C)c(OCCCCCCCCNc2ccc3c(-c4ccccc4CNc4nc(O[C@@H]5CCCNC5)nc5c(C(C)C)cnn45)nccc3c2)c1 [Compound 22] | 0.1 to 1 | B or A | 0.1 to 1 | A (A indicates [fold] > 500) | > 1 | B (B indicates 50 < [fold] ≤ 500) | > 1 | A (A indicates [fold] > 500) | > 1
Cc1cc(C(C(=O)N2C[C@H](O)C[C@H]2C(=O)NCc2ccc(-c3scnc3C)cc2OCCOCCOCCNc2ccc3c(-c4ccccc4CNc4nc(O[C@@H]5CCCNC5)nc5c(C(C)C)cnn45)nccc3c2)C(C)C)on1 (some centres unmarked) [Compound 24] | ≤ 0.1 | – | ≤ 0.1 | A (A indicates [fold] > 500) | > 1 | A (A indicates [fold] > 500) | > 1 | A (A indicates [fold] > 500) | > 1
Cc1ncsc1-c1ccc(CNC(=O)[C@@H]2C[C@@H](O)CN2C(=O)[C@@H](NC(=O)C2(F)CC2)C(C)(C)C)c(OCCN2CCC(N3CCC(CNc4ccc5c(-c6ccccc6CNc6nc(O[C@@H]7CCCNC7)nc7c(C(C)C)cnn67)nccc5c4)CC3)CC2)c1 [Compound 25] | ≤ 0.1 | – | ≤ 0.1 | A (A indicates [fold] > 500) | > 1 | A (A indicates [fold] > 500) | > 1 | A (A indicates [fold] > 500) | > 1
Cc1cc([C@@H](C(=O)N2C[C@H](O)C[C@H]2C(=O)NCc2ccc(-c3scnc3C)cc2OCCOCCOCCNc2ccc3c(-c4ccccc4CNc4nc(O[C@@H]5CCCNC5)nc5c(C(C)C)cnn45)nccc3c2)C(C)C)on1 [Compound 26] | ≤ 0.1 | – | > 1 | A (A indicates [fold] > 500) | > 1 | A (A indicates [fold] > 500) | > 1 | A (A indicates [fold] > 500) | > 1
Cc1cc([C@H](C(=O)N2C[C@H](O)C[C@H]2C(=O)NCc2ccc(-c3scnc3C)cc2OCCOCCOCCNc2ccc3c(-c4ccccc4CNc4nc(O[C@@H]5CCCNC5)nc5c(C(C)C)cnn45)nccc3c2)C(C)C)on1 [Compound 27] | 0.1 to 1 | – | ≤ 0.1 | B (B indicates 50 < [fold] ≤ 500) | > 1 | B (B indicates 50 < [fold] ≤ 500) | > 1 | B (B indicates 50 < [fold] ≤ 500) | > 1
Cc1ncsc1-c1ccc([C@H](C)NC(=O)[C@@H]2C[C@@H](O)CN2C(=O)[C@@H](NC(=O)CCOCCOCCOCCNc2ccc3c(-c4ccccc4CNc4nc(O[C@@H]5CCCNC5)nc5c(C(C)C)cnn45)nccc3c2)C(C)(C)C)cc1 [Compound 28] | ≤ 0.1 | – | ≤ 0.1 | A (A indicates [fold] > 500) | > 1 | A (A indicates [fold] > 500) | > 1 | A (A indicates [fold] > 500) | > 1
CC(C)c1cnn2c(NCc3ccccc3-c3nccc4cc(NCC5CCN(CC6CCN(c7ccc8c(c7)C(=O)N(C7CCC(=O)NC7=O)C8=O)CC6)CC5)ccc34)nc(O[C@@H]3CCCNC3)nc12 (some centres unmarked) [Compound 30] | ≤ 0.1 | – | ≤ 0.1 | A (A indicates [fold] > 500) | > 1 | B (B indicates 50 < [fold] ≤ 500) | > 1 | B (B indicates 50 < [fold] ≤ 500) | > 1
CC(C)c1cnn2c(NCc3ccccc3-c3nccc4cc(NCC5CCN(C6CCN(c7ccc8c(c7)C(=O)N(C7CCC(=O)NC7=O)C8=O)CC6)CC5)ccc34)nc(O[C@@H]3CCCNC3)nc12 (some centres unmarked) [Compound 31] | ≤ 0.1 | – | ≤ 0.1 | A (A indicates [fold] > 500) | > 1 | B (B indicates 50 < [fold] ≤ 500) | > 1 | A (A indicates [fold] > 500) | > 1
CC(C)c1cnn2c(NCc3ccccc3-c3nccc4cc(NCC5CCN(CC6CCN(c7ccc8c(c7)C(=O)N(C7CCC(=O)NC7=O)C8=O)CC6)CC5)ccc34)nc(N[C@@H]3CCCNC3)nc12 (some centres unmarked) [Compound 32] | ≤ 0.1 | – | ≤ 0.1 | A (A indicates [fold] > 500) | > 1 | B (B indicates 50 < [fold] ≤ 500) | > 1 | A (A indicates [fold] > 500) | > 1
CC(C)c1cnn2c(NCc3ccccc3-c3nccc4cc(N5CCN(CC6CCN(c7ccc8c(c7)C(=O)N(C7CCC(=O)NC7=O)C8=O)CC6)CC5)ccc34)nc(O[C@@H]3CCCNC3)nc12 (some centres unmarked) [Compound 33] | ≤ 0.1 | – | ≤ 0.1 | A (A indicates [fold] > 500) | > 1 | B (B indicates 50 < [fold] ≤ 500) | > 1 | A (A indicates [fold] > 500) | > 1
CC(C)c1cnn2c(NCc3ccccc3-c3nccc4cc(N5CCC(CN6CCN(c7ccc8c(c7)C(=O)N(C7CCC(=O)NC7=O)C8=O)CC6)CC5)ccc34)nc(O[C@@H]3CCCNC3)nc12 (some centres unmarked) [Compound 34] | ≤ 0.1 | – | ≤ 0.1 | A (A indicates [fold] > 500) | > 1 | A (A indicates [fold] > 500) | > 1 | A (A indicates [fold] > 500) | > 1
